Measurements published in patent US12208112B2, “Composition for treating blood cancer using 4′-thio-5-Aza-2′-deoxycytidine and uses thereof” (Southern Research Institute, priority 2020, dated 2025).

What was measured:
DNMT1 = DNMT1 (Homo sapiens, UniProt P26358); conditions: background statement; cited from earlier work
[1] = Animal PK, NCA parameters, rat; conditions: in vivo
[2] = system: MDS orthotopic animal models; conditions: reported in 2018; cited from earlier work
[3] = Human PK parameter prediction by interspecies (allometric) scaling; conditions: for F_human (equation result): in % (unit assumed)
Text: PK parameters were scaled allometrically and used to extrapolate the PK in a 70 kg human. Details are described in the next section.
Simple allometric scaling, was used to predict CL, Vc, Vp, and Q. Y is PK parameter, BW is body weight, a is the allometric coefficient, and b is the allometric exponent. Final PK parameters, CL, Vc, Vp, and Q, were extrapolated based on the best-fit-lines (FIG. 8).
See Musther et al. (2014) European Journal of Pharmaceutical Sciences 57: 280-291.
For absorption rate constant (Ka) and bioavailability (F), animal parameters were used.

normal mouse = test: Bone marrow toxicity after one-cycle PO administration to a normal mouse; assay type: in vivo
Text: In the case of elderly patients who cannot receive bone marrow transplants, that is, the main targets of decitabine and azacytidine, toxicity in the bone marrow becomes the limit dose that determines a dose for administration, and, thus, the maximum dose that enables safe administration was to be determined.

cytidine deaminase = cytidine deaminase (Homo sapiens, UniProt P32320); conditions: compared to conventional compounds with a 5-azacytidine backbone; cited from earlier work
MV4-11 AML cells [4] = test: Systemic AML model, MV4-11 AML cells transplanted into the bone marrow (survival, clinical observations)
Mouse PK (AUC) = assay type: in vivo; conditions: for AUC: in vivo, mouse
Text: (§1) Without wishing to be bound by theory, this is excellent efficacy at a level that is impossible to reach by the same family of cytidine-based drugs such as decitabine or azacytidine, which was conventionally used, and according to conventional reports on Aza-T-dCyd, the level corresponds to a dose of a level expected to have toxicity.

MV4-11 AML cells [5] = test: Blood analysis (CBC sampling) in the systemic AML model; conditions: blood samples collected in the AML model experiment
[6] = Animal PK, NCA parameters, mouse; conditions: in vivo
[7] = Simulation of human PK using decitabine PK parameters; conditions: from animal parameters, used in human simulation
Text: as §1

MV4-11 AML cells [8] = test: Xenograft AML model with subcutaneously transplanted MV4-11 AML cells, alone and in combination with Venetoclax; assay type: in vivo, mouse; conditions: Aza-T-dCyd 2.0 mpk PO alone, Aza-T-dCyd 0.5 mpk with Venetoclax 50 mpk PO, Azacitidine 5.0 mpk IP alone
Text: 5.0 mpk of Azacitidine alone; or 2.5 mpk of Azacitidine in combination of 50 mpk of Venetoclax were intraperitoneal (IP) administered as a control.

[9] = Animal PK, NCA parameters, dog; conditions: in vivo
[10] = Absorption parameters over three species; assay type: in vivo, mice, rats, or dogs
Text: Details are described in the next section. […] See also FIG. 3 and FIG. 7.
The human F calculated by the equation reported in literature was about 0.65 (from mouse), 0.59 (from rat), or 0.66 (from dog). See Musther et al. (2014) European Journal of Pharmaceutical Sciences 57: 280-291.

Molm13 AML cells = test: Xenograft model with subcutaneously transplanted Molm13 AML cells; assay type: in vivo, mouse; conditions: 1.5 or 2.5 mpk PO, one cycle
[11] = system: blood cancer mouse models; test: Blood cancer mouse models (summary statement); assay type: in vivo; conditions: 1.4 to 2.6 mpk PO for 5 days, 2-day break, 9-day break
in vivo [12] = conditions: mouse, iv, 1 mg/kg
[13] = cited from earlier work
in vivo [14] = conditions: dog, iv, 0.33 mg/kg
in vivo [15] = conditions: rat, iv, 1 mg/kg
[16] = human decitabine parameter used in simulation

DNMT1, sequence (P26358 whole entry, species assumed): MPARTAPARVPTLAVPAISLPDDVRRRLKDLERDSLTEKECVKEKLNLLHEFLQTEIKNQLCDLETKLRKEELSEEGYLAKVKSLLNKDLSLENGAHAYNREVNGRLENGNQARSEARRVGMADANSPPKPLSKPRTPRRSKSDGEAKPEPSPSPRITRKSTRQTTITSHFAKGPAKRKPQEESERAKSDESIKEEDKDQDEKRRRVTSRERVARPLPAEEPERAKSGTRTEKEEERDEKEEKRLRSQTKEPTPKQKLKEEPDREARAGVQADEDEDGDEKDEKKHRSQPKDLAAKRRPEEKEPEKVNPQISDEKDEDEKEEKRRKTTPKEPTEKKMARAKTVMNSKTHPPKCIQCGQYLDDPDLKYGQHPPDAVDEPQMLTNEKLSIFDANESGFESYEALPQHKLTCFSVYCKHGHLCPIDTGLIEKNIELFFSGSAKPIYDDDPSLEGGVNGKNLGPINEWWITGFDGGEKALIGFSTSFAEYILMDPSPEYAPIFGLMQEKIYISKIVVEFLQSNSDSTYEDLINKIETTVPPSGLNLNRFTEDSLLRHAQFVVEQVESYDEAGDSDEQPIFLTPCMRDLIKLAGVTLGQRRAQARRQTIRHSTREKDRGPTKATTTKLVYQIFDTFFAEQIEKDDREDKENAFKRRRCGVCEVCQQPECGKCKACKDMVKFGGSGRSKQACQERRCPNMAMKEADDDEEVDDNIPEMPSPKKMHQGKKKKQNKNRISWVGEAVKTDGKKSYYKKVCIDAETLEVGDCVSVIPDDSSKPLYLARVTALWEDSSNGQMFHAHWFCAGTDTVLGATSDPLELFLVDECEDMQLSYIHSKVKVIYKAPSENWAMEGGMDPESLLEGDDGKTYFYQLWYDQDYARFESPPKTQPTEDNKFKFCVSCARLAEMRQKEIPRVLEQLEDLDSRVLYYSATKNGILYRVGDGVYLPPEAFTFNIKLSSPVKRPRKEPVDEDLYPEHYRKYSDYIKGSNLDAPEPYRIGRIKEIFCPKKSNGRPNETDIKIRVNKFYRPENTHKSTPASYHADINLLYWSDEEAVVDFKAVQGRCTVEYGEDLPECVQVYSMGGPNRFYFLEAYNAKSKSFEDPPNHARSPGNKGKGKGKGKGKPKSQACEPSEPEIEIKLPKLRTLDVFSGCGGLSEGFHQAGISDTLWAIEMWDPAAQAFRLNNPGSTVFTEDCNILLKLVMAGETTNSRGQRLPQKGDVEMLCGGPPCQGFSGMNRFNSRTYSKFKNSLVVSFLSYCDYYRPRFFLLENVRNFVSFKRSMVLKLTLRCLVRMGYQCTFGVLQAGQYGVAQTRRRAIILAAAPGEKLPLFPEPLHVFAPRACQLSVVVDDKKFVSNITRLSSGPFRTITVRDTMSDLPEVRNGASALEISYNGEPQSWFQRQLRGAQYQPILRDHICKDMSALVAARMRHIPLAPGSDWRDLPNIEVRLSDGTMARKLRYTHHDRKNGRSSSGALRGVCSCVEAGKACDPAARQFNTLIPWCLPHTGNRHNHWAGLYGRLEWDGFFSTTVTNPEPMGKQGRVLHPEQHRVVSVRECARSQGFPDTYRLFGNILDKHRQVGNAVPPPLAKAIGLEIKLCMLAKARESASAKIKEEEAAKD
cytidine deaminase, sequence (P32320 whole entry, species assumed): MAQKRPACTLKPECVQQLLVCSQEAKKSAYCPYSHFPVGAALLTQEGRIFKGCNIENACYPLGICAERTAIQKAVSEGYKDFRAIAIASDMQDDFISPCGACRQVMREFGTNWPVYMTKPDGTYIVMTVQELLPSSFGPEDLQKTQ

Nc1ncn(C2CC(O)C(CO)S2)c(=O)n1 (stereo not drawn) [Aza-T-dCyd, 4′-Thio-5-aza-2′-deoxycytidine]
DNMT removal and inhibitory activities in cells (DNMT1): high DNMT removal and inhibitory activities in cells | bioavailability [1]: 43.2% | AUC(0-inf) ([1]; iv, 1 mg/kg): 1900 ng·h/mL | C0 ([1]; iv, 1 mg/kg): 562 ng/mL | Vd ([1]; iv, 1 mg/kg): 3.53 L/kg | clearance ([1]; iv, 1 mg/kg): 8.83 mL/min/kg | half-life ([1]; iv, 1 mg/kg): 5.01 h | toxicity [2]: so severe that therapeutic efficacy was not observed | F_human (equation result) ([3]; From Dog): 66.28 | F_human (equation result) ([3]; From Mouse): 65.16 | F_human (equation result) ([3]; From Rat): 59.26 | human Ka ([3]; estimated assuming Tmax in a human is 1 hour, value set): 2.8 h⁻¹ | human F calculated by literature equation ([3]; from dog): ~0.66 | human F calculated by literature equation ([3]; from mouse): about 0.65 | human F calculated by literature equation ([3]; from rat): ~0.59 | CL Clearance, Predicted Value ([3]; predicted for a 70 kg human): 8.95 L/h | F Absolute bioavailability, Predicted Value ([3]; predicted for a 70 kg human): 0.6 | Ka The first-order absorption rate constant, Predicted Value ([3]; predicted for a 70 kg human): 2.8 h⁻¹ | Q Intercompartmental clearance, Predicted Value ([3]; predicted for a 70 kg human): 250.52 L/h | Vc Central volume = V2, Predicted Value ([3]; predicted for a 70 kg human): 29.50 L | Vp Peripheral volume = V3, Predicted Value ([3]; predicted for a 70 kg human): 12.92 L | human F (set value) ([3]; set in consideration of the results): 0.6 | change in the bone marrow (normal mouse; 2.5 mpk PO, one cycle): a significant change in the bone marrow started to be observed | viability and composition of each cell in the bone marrow (normal mouse; up to 2.0 mpk PO, one cycle (5 days, 2-day break, 5 days, 9-day break)): no significant change in the viability and composition of each cell in the bone marrow | rate of degradation by cytidine deaminase (cytidine deaminase): reduced rate of degradation by cytidine deaminase | therapeutic efficacy against MDS/AML (MV4-11 AML cells [4]; 1.4 to 2.6 mpk based on a mouse): excellent therapeutic efficacy against MDS/AML | efficacy (MV4-11 AML cells [4]; 1.5 mpk PO, three cycles): an efficacy which did not reach that of the PO administration of 2.0 to 2.5 mpk of Aza-T-dCyd | clinical observations including body weight (MV4-11 AML cells [4]; 2.0 mpk PO, one cycle): stay in the normal range | clinical observations including mouse body weight (MV4-11 AML cells [4]; 2.0 mpk PO, three cycles): remained in the normal range | survival improvement (MV4-11 AML cells [4]; 2.0 mpk PO, three cycles): very excellent survival improvement | death of subjects (MV4-11 AML cells [4]; 2.5 mpk PO, three cycles): led to the death of some subjects | survival improvement (MV4-11 AML cells [4]; one cycle, Aza-T-dCyd 2.0 mpk PO, decitabine and azacytidine at optimal doses as controls): very excellent survival improvement | maximum range of change of total area under curve (AUC) (Mouse PK (AUC); 2.0 mpk PO): approximately 25% | AUC (Mouse PK (AUC); oral, 0.07 mg/kg, 0.07 mpk): 11.3 ng·h/mL | AUC (Mouse PK (AUC); oral, 0.13 mg/kg, 0.13 mpk): 19.3 ng·h/mL | AUC (Mouse PK (AUC); oral, 0.27 mg/kg, 0.27 mpk): 38.1 ng·h/mL | AUC (Mouse PK (AUC); oral, 0.4 mg/kg, 0.4 mpk): 55.4 ng·h/mL | AUC (Mouse PK (AUC); oral, 0.8 mg/kg, 0.8 mpk): 109 ng·h/mL | AUC (Mouse PK (AUC); oral, 1 mg/kg, 1.0 mpk): 136 ng·h/mL | AUC (Mouse PK (AUC); oral, 1.4 mg/kg, 1.4 mpk): 183 ng·h/mL | AUC (Mouse PK (AUC); oral, 1.5 mg/kg, 1.5 mpk): 203 ng·h/mL | AUC (Mouse PK (AUC); oral, 2.5 mg/kg, 2.5 mpk): 336 ng·h/mL | AUC (Mouse PK (AUC); oral, 2.6 mg/kg, 2.6 mpk): 355 ng·h/mL | AUC (Mouse PK (AUC); oral, 3 mg/kg, 3.0 mpk): 403 ng·h/mL | AUC (Mouse PK (AUC); oral, 10 mg/kg, 10 mpk): 1340 ng·h/mL | AUC (Mouse PK (AUC); po, 2 mg/kg, 2.0 mpk): 270 ng·h/mL | blood analysis: major parameters (WBC, neutrophil, platelet, RBC levels) (MV4-11 AML cells [5]): no change in major parameters | bioavailability [6]: 50.6% | AUC(0-inf) ([6]; iv, 1 mg/kg): 406 ng·h/mL | C0 ([6]; iv, 1 mg/kg): 616 ng/mL | Vd ([6]; iv, 1 mg/kg): 1.9 L/kg | clearance ([6]; iv, 1 mg/kg): 42.3 mL/min/kg | half-life ([6]; iv, 1 mg/kg): 0.6 h | F Absolute bioavailability [7]: 0.6 | Ka The first-order absorption rate constant [7]: 2.8 h⁻¹ | anti-cancer effects (tumor volume) (MV4-11 AML cells [8]): very excellent anti-cancer effects | bioavailability [9]: 68.7% | AUC(0-inf) ([9]; iv, 0.33 mg/kg): 1130 ng·h/mL | C0 ([9]; iv, 0.33 mg/kg): 586 ng/mL | Vd ([9]; iv, 0.33 mg/kg): 0.81 L/kg | clearance ([9]; iv, 0.33 mg/kg): 5 mL/min/kg | half-life ([9]; iv, 0.33 mg/kg): 2.25 h | average absorption rate constant (Ka) ([10]; average from three species): approximately 2.63 h^−1 | bioavailability ([10]; mouse, rat, dog, in vivo, average from three species, read-out: average bioavailability (F)): ~54% | Tmax ([10]; mouse, rat, dog, in vivo, range of the three species): 0.25 to 2 h | anticancer efficacy (Molm13 AML cells): excellent anticancer efficacy close to tumor regression | anticancer effect [11]: significant anticancer effect

Nc1ncn([C@H]2C[C@H](O)[C@@H](CO)O2)c(=O)n1 [decitabine, reference compound]
AUC(0-inf) ([1]; iv, 1 mg/kg): 2370 ng·h/mL | C0 ([1]; iv, 1 mg/kg): 504 ng/mL | Vd ([1]; iv, 1 mg/kg): 2.16 L/kg | clearance ([1]; iv, 1 mg/kg): 7 mL/min/kg | half-life (in vivo [12]): 0.4 h | AUC(0-inf) ([6]; iv, 1 mg/kg): 268 ng·h/mL | C0 ([6]; iv, 1 mg/kg): 579 ng/mL | Vd ([6]; iv, 1 mg/kg): 1.7 L/kg | clearance ([6]; iv, 1 mg/kg): 62.5 mL/min/kg | AUC(0-inf) ([9]; iv, 0.33 mg/kg): 1080 ng·h/mL | C0 ([9]; iv, 0.33 mg/kg): 746 ng/mL | Vd ([9]; iv, 0.33 mg/kg): 0.476 L/kg | clearance ([9]; iv, 0.33 mg/kg): 5.17 mL/min/kg | Q Intercompartmental clearance [13, 16]: 23 L/h | Vc Central volume = V2 [13, 16]: 32 L | Vp Peripheral volume = V3 [13, 16]: 40 L | CL Clearance ([13]; human, reported in literature, used in human simulation): 152 L/h | half-life (in vivo [14]): 1.19 h | half-life (in vivo [15]): 3.71 h

Nc1ncn([C@@H]2O[C@H](CO)[C@@H](O)[C@H]2O)c(=O)n1 [azacytidine, reference compound]
blood analysis: major parameters (WBC, neutrophil, platelet, RBC levels) (MV4-11 AML cells [5]): severe neutropenia
